This passage reports GI50 and TGI results from PubChem BioAssay (NCI).

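Growth conditions: 96-well plates. Treatment: test compound, 48 hours, 5 concentrations. Analysis: linear interpolation between bracketing concentrations; unreached endpoints set to highest concentration. Here, GI50 denotes the concentration required for 50% inhibition of growth. TGI is the concentration that stops growth completely.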 Some results are limits rather than exact numbers.

What all share (experiment): NCI anticancer screen, dose series, 48 h
The test system of test [1] is SNB-75 CNS.
In test [2] the test system is PC-3 prostate.
Test [3] deals with SK-MEL-2 melanoma.
Test [4] deals with HL-60(TB) leukemia.
The subject of test [5] is HT29 colon.
The test system of test [6] is OVCAR-3 ovarian.
For test [7], the system named is HOP-92 NSCLC.
For test [8], the system named is SK-OV-3 ovarian.
The subject of test [9] is 786-0 renal.
Test [10] has as its system SF-539 CNS.

`COc1ccc(C2=NN(C(=O)COc3ccc(Cl)cc3)C(O)(c3cc(F)c(Cl)cc3Cl)C2)cc1OC` (stereo not given): the GI50 was 2.69 µM in test [1]; 5.49 µM in [2]; 1.11 µM in test [3]; 2.68 µM in test [4]; 1.51 µM in [5]; 0.214 µM in [6]. Further, the GI50 in test [7] was 2.31 µM; in test [8], 16.1 µM; in test [9], 3.31 µM; in test [10] it was 1.81 µM. Besides, the TGI turned out to be 7.3 µM in test [1]; 13.2 µM in test [2]; 3.24 µM in test [3]; 7.86 µM in test [4]; 3.24 µM in test [5]; 1.46 µM in [6]. Moreover, the TGI stood at 13.2 µM in [7], 30.6 µM in test [8], 8.9 µM in test [9] and 3.55 µM in [10].
With `Cn1ccc2c(NCCN)c3c(c(NCCN)c21)C(=O)c1ccccc1C3=O`, the GI50 was 18.9 µM in test [1]; 0.494 µM in test [2]; 2.33 µM in [3]; 2.91 µM in test [4]; 7.77 µM in test [5]; 0.795 µM in test [6]. Besides, the GI50 was 0.718 µM in [7], 20.3 µM in test [8], 0.443 µM in [9] and 0.291 µM in test [10]. Besides, the TGI in [1] was 44.5 µM; in test [2], 3.18 µM; in test [3], 11.5 µM; in [4], 64.1 µM; in test [5] it was over 44.8 µM; in [6] it was 5.37 µM. Moreover, the TGI in [7] was found to be 2.58 µM; in test [8], 42.4 µM; in [9] it was 3.95 µM; in [10] it was 1.55 µM.
With `COc1cc(NC(=O)c2cc(OC)c3ccn(C)c3c2)cc2c1C[C@]1(C)CC[C@@H](O)C(C)(C)[C@H]1O2`, the GI50 in test [1] is 1.89 µM; in test [2], 6.17 µM; in [3], 6.1 µM; in test [4], 3.49 µM; in [5], 7.24 µM; in test [6], 12.6 µM. For the same compound, the GI50 is 4.11 µM in test [7], 6.41 µM in [8], 1.29 µM in [9] and 1.37 µM in test [10]. In addition, the TGI in test [1] was 40.8 µM; in test [2] it was over 100 µM; in test [3] it was 64.6 µM; in test [4] it was 14.7 µM; in test [5], over 100 µM; in test [6], over 100 µM. The TGI was 32.3 µM in [7], over 100 µM in test [8], 4.08 µM in test [9] and 18.8 µM in test [10].
Turning to `C/C=C(\C)C(=O)N[C@H]1[C@@H](OC(C)=O)C[C@]2(C)C3CC[C@@]4(C)C(CC[C@@H]4C(C)N(C)C)C3CCC2[C@H]1O` (stereo not given in full), the GI50 in [1] is 5.86 µM; in test [2], 2.88 µM; in test [3] it was 2.3 µM; in test [4], 4.53 µM; in [5], 0.738 µM; in [6] it was 5.56 µM. For the same compound, the GI50 was 1.04 µM in test [7], 7.95 µM in test [8], 5.22 µM in test [9] and 1.87 µM in test [10]. For the same compound, the TGI in [1] was 20.8 µM; in test [2] it was 24.2 µM; in test [3], 6.38 µM; in test [4], 13.6 µM; in [5] it was 6.55 µM; in test [6], 19.1 µM. For the same compound, the TGI is 15.5 µM in test [7], 22.5 µM in [8], 16.3 µM in test [9] and 4.97 µM in [10].
For the compound `NCCCC(=O)Nc1ccncc1`, the GI50 was 60 µM in test [1]; over 100 µM in [2]; over 100 µM in test [3]; over 100 µM in test [4]; over 100 µM in [5]; over 100 µM in [6]. In addition, the GI50 in test [7], in [8], in test [9] and in [10] was over 100 µM each time. In addition, the TGI in test [1], in test [2], in test [3], in test [4], in [5] and in test [6] was over 100 µM in each case. In addition, the TGI in [7], in test [8], in [9] and in [10] was over 100 µM in each case.
Regarding `COc1c(C)c2c(c(O)c1C/C=C(\C)CCC(=O)OCCN1CCOCC1)C(=O)OC2`, the GI50 in [1] is 0.475 µM; in test [2], 0.562 µM; in test [3], 33.6 µM; in [4], 1.12 µM; in test [5], 0.552 µM; in test [6], 0.348 µM. Moreover, the GI50 in test [7] is 5.18 µM; in [8], 0.462 µM; in [9] it was 0.385 µM; in test [10] it was 0.375 µM. Also, the TGI was over 24.9 µM in test [1]; over 100 µM in test [2]; over 100 µM in test [3]; over 100 µM in [4]; over 100 µM in test [5]; over 100 µM in test [6]. The TGI in test [7], in test [8], in [9] and in test [10] was over 100 µM throughout.
Consider `CCN(CC)CCOc1ccc(Nc2ncc3cc(-c4ccc(O)cc4)c(=O)n(C)c3n2)cc1`, for which the GI50 was 0.0406 µM in test [1]; 0.831 µM in test [2]; 18.9 µM in test [3]; 14.6 µM in [4]; 0.379 µM in [5]; 15.9 µM in test [6]. Moreover, the GI50 in test [7] is 12.9 µM; in test [8], 0.0791 µM; in test [9], 0.391 µM; in test [10], 0.629 µM. Also, the TGI in [1] was 13.7 µM; in [2], 24.6 µM; in test [3], 39.5 µM; in test [4] it was 40.3 µM; in test [5], 2.79 µM; in test [6] it was 31.2 µM. For the same compound, the TGI in test [7] turned out to be 31.1 µM; in test [8], 24.8 µM; in test [9], 2.65 µM; in test [10], 11.6 µM.
